{"source": "patent US9512152B2", "about": "“Phospholipid compound containing unsaturated fatty acid derivative having cyclopropane ring” (NISHIZAKI BIOINFORMATION RESEARCH INSTITUTE, priority 2013, dated 2016)", "key": {"[1]": {"system": "Akt in 3T3L1-GLUT4myc adipocytes", "assay": "Akt activation, Western blotting of phospho-Akt (Thr308, Ser473)", "type": "cell-based", "details": "diDCP-LA-PE 1 μM, FIG. 4", "method": "3T3L1-GLUT4myc fibroblast strain expressing GLUT4myc was used. The cells are constructed by inserting human c-MYC epitope (14 amino acids) into the first ectodomain. The cells were cultured in Dulbecco's Modified Eagles Medium (DMEM) added with 10% (v/v) bovine serum, penicillin (final concentration, 100 U/ml) and streptomycin (final concentration, 0.1 mg/ml) in a humid environment under 5% CO2 and 95% air at 37° C. When the cells reached confluence (day 0), the medium was exchanged with DMEM added with 10% (v/v) fetal bovine serum (FBS), 1 μM dexamethasone, 0.5 mM 3-isobutyl-methyl-xanthine and 0.1 mg/ml insulin to allow for differentiation from fibroblast into adipocyte. The medium was exchanged with DMEM added with 10% (v/v) FBS on day 3, day 7 and day 11. On day 14, the cells were used for the experiment. […]\nFor Western blotting, the protein was separated by SDS-polyacrylamide gel electrophoresis (SDS-PAGE), and transferred onto polyvinylidene difluoride membranes. […] The immunoreactivity was detected using ECL kit (GE Healthcare, Piscataway, N.J., USA), and visualized using a chemical luminescence detection system (chemiluminescence detection system; GE Healthcare). The protein concentration of each sample was measured using BCA protein assay kit (Thermo Fisher Scientific, Waltham, Mass., USA)."}, "[2]": {"system": "3T3L1-GLUT4myc adipocytes", "assay": "Analysis of GLUT4 trafficking (cellular membrane transport of GLUT4)", "type": "cell-based", "details": "20 min", "method": "3T3L1-GLUT4myc fibroblast strain expressing GLUT4myc was used. The cells are constructed by inserting human c-MYC epitope (14 amino acids) into the first ectodomain. The cells were cultured in Dulbecco's Modified Eagles Medium (DMEM) added with 10% (v/v) bovine serum, penicillin (final concentration, 100 U/ml) and streptomycin (final concentration, 0.1 mg/ml) in a humid environment under 5% CO2 and 95% air at 37° C. When the cells reached confluence (day 0), the medium was exchanged with DMEM added with 10% (v/v) fetal bovine serum (FBS), 1 μM dexamethasone, 0.5 mM 3-isobutyl-methyl-xanthine and 0.1 mg/ml insulin to allow for differentiation from fibroblast into adipocyte. The medium was exchanged with DMEM added with 10% (v/v) FBS on day 3, day 7 and day 11. On day 14, the cells were used for the experiment.\n3T3L1-GLUT4myc adipocytes were incubated in Krebs-Ringer-HEPES buffer [136 mM NaCl, 4.7 mM KCl, 1.25 mM CaCl2, 1.25 mM MgSO4 and 20 mM HEPES, pH 7.5] containing 0.2% (w/v) bovine serum albumin and added with 10 mM glucose at 37° C. for 1 hr. The cells were incubated in the presence or absence of insulin, phospholipid or a derivative thereof for 20 min. Then, the cells were homogenized by sonication in an ice-cooled mitochondria buffer containing 1% (v/v) protease inhibitor cocktail [210 mM mannitol, 70 mM sucrose, and 1 mM ethylenediaminetetraacetic acid (EDTA), 10 mM HEPES, pH 7.5]. Sequentially, the homogenate was centrifuged at 4° C. for 5 min at 3,000 rpm. The supernatant was further centrifuged at 4° C. for 15 min at 11,000 rpm. […] The protein concentration of each fraction was measured using BCA protein assay kit (Thermo Fisher Scientific, Waltham, Mass., USA). […] The immunoreactivity was detected using ECL kit (Invitrogen), and visualized using a chemical luminescence detection system (chemiluminescence detection system; GE Healthcare, Piscataway, N.J., USA). The signal density was measured using an image analysis software (Image Gauge software; GE Healthcare)."}, "[3]": {"system": "C57BL/KsJ-lepr db/lepr db mouse", "assay": "Glucose tolerance test in type 2 diabetes model mouse", "type": "in vivo", "details": "oral, 0.01-3 mg/kg, 30 min before glucose 2 g/kg, FIG. 10", "method": "C57BL/KsJ-lepr^db/lepr^db mouse (female, 8-week-old) (CLEA Japan; Tokyo, Japan) was used. The glucose tolerance test was performed using the mouse starved for 12 hr. Glucose (2 g/ml/kg body weight) was administered by gavage, and the time point thereof was taken as 0 h. diDCP-LA-PE (0.01, 0.1, 1, 3 mg/kg), insulin (0.75 U/kg) or brine was orally administered 30 min before administration of glucose. The blood (10 μl) was collected from the tail vein at the time points of 0, 30, 60, and 90 min, and each plasma sample which was labeled with p-aminobenzylethylester and prepared from the obtained blood was loaded on high performance liquid chromatography (HPLC) system (LC-10ATvp; Shimadzu Co., Kyoto, Japan). The glucose concentration was calculated from a peak area/concentration analytical curve prepared using the standard glucose solution."}, "[4]": {"system": "STZ-treated C57BL/6J mouse", "assay": "Oral glucose tolerance test in streptozotocin-treated type 1 diabetes model mouse", "type": "in vivo", "details": "oral 1 mg/kg, 4 consecutive days before OGTT and 30 min before glucose, FIG. 11", "method": "C57BL/6J mouse (male, 8-week-old) (Japan SLC Inc.; Shizuoka, Japan) was used. Streptozotocin (STZ; 250 mg/kg) or saline as a control was injected intraperitoneally. After 4 days from the injection, an oral glucose tolerance test (OGTT) was performed."}, "[5]": {"system": "3T3L1-GLUT4myc adipocytes having a knocked-down insulin receptor", "assay": "GLUT4 trafficking in adipocytes with knocked-down insulin receptor", "type": "cell-based", "details": "1 μM, 20 min, absence of insulin, FIG. 12", "method": "3T3L1-GLUT4myc adipocytes were incubated in Krebs-Ringer-HEPES buffer [136 mM NaCl, 4.7 mM KCl, 1.25 mM CaCl2, 1.25 mM MgSO4 and 20 mM HEPES, pH 7.5] containing 0.2% (w/v) bovine serum albumin and added with 10 mM glucose at 37° C. for 1 hr. The cells were incubated in the presence or absence of insulin, phospholipid or a derivative thereof for 20 min. Then, the cells were homogenized by sonication in an ice-cooled mitochondria buffer containing 1% (v/v) protease inhibitor cocktail [210 mM mannitol, 70 mM sucrose, and 1 mM ethylenediaminetetraacetic acid (EDTA), 10 mM HEPES, pH 7.5]. Sequentially, the homogenate was centrifuged at 4° C. for 5 min at 3,000 rpm. The supernatant was further centrifuged at 4° C. for 15 min at 11,000 rpm. The recovered supernatant was ultracentrifuged at 4° C. for 60 min at 100,000 g, and separated into a cytoplasm fraction and a cellular membrane fraction. […] The protein concentration of each fraction was measured using BCA protein assay kit (Thermo Fisher Scientific, Waltham, Mass., USA). […] The immunoreactivity was detected using ECL kit (Invitrogen), and visualized using a chemical luminescence detection system (chemiluminescence detection system; GE Healthcare, Piscataway, N.J., USA). The signal density was measured using an image analysis software (Image Gauge software; GE Healthcare). […]"}}, "data": [{"smiles": "CCCCCC1CC1CC1CC1CCCCCCCC(=O)OC[C@H](COP(=O)(O)OCCN)OC(=O)CCCCCCCC1CC1CC1CC1CCCCC", "note": "(stereo partly drawn) [diDCP-LA-PE, 1,2-o-bis-[8-{2-(2-pentyl-cyclopropylmethyl)-cyclopropyl}-octanoyl]-sn-glycero-3-phosphatidylethanolamine]", "values": [{"measurement": "Akt activation (phosphorylation of Thr308 and Ser473 relative to total Akt)", "setting": "[1]", "value": "has an action to activate Akt"}, {"measurement": "Promotion of cellular membrane transport of GLUT4", "setting": "[2]; 1 μM, FIG. 7", "value": "an action to promote cellular membrane transport of GLUT4"}, {"measurement": "Concentration dependence of cellular membrane transport of GLUT4", "setting": "[2]; given concentrations, FIG. 8", "value": "promotes cellular membrane transport of GLUT4 in a concentration-dependent manner"}, {"measurement": "Decrease of blood glucose level", "setting": "[3]", "value": "decrease the blood glucose level in a dose-dependent manner"}, {"measurement": "Suppression of increase in blood glucose", "setting": "[4]", "value": "significantly suppresses an increase in the blood glucose"}, {"measurement": "Transfer of GLUT4 to cellular membrane, insulin receptor knock-down", "setting": "[5]", "value": "can promote transfer of GLUT4 to a cellular membrane in an insulin receptor independent manner"}]}]}
